Experimental data taken from patent EP4603105A1, “PHARMACEUTICAL COMPOSITION CONTAINING CYCLIC COMPOUND HAVING SELECTIVE KRAS INHIBITORY EFFECT AGAINST HRAS AND NRAS” (CHUGAI SEIYAKU KABUSHIKI KAISHA, priority 2022, dated 2024).
pIC50, pKd: −log10 of the molar value.

Columns and labels:
[1] = molecular target: HRAS wild-type protein (Homo sapiens, UniProt P01112); experiment: Binding to HRAS by surface plasmon resonance (SPR), KD and KD ratio to KRAS; settings: ratio of KD with respect to HRAS wild-type protein to KD with respect to KRAS
Chain of HRAS wild-type protein (P01112 whole entry): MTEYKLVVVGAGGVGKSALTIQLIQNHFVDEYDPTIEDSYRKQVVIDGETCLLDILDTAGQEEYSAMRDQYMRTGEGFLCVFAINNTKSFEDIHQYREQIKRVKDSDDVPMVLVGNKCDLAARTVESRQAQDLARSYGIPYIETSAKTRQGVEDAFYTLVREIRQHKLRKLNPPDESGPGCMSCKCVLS
Outline: (§1)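 Measured at 30°C: SPR with GDP-loaded, E. coli-expressed biotin-Avi RAS captured (~100–300 RU), ascending 75 s compound injections, HBS pH 7.4 with GDP, MgCl2, 4% DMSO. KD from 1:1 fit.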

[2] = molecular target: GDP-bound KRAS wild-type protein (Homo sapiens, UniProt P01116); experiment: Binding to KRAS by surface plasmon resonance (SPR), dissociation constant KD; settings: Single Cycle Kinetics, 1:1 binding model
Chain of GDP-bound KRAS wild-type protein (P01116 1-188 isoform P01116-2): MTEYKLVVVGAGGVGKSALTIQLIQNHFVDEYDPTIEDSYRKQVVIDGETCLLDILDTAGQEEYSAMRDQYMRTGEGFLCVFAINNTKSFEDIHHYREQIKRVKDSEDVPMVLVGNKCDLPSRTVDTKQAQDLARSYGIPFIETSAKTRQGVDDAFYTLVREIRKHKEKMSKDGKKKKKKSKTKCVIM
Outline: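 SPR, 30°C: Avi-biotin RAS·GDP captured via Biotin CAPture (~100–300 RU); running buffer HBS pH 7.4, 1 mM DTT, 10 mM MgCl2, 0.01% Tween 20, 10 µM GDP, 4% DMSO. Single-cycle kinetics, 100 µL/min, 75 s injections; 1:1 model → KD.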

[3] = test system: human lung cancer strain NCI-H441; experiment: NCI-H441 cell proliferation inhibitory activity (CellTiter-Glo, 4 days); assay type: cell-based; settings: 50% proliferation inhibitory concentration, four days, read-out: NCl-H441 IC50
Outline: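 Signal came from […] measured per well once the reagent was added. Beforehand, cells were cultured at 37°C and 5% carbon dioxide on a compound series serially diluted in dimethyl sulfoxide.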

[4] = molecular target: GDP-bound NRAS wild-type protein (Homo sapiens, UniProt P01111); experiment: Binding to NRAS by surface plasmon resonance (SPR), KD and KD ratio to KRAS; settings: ratio of KD with respect to GDP-bound NRAS wild-type protein to KD with respect to KRAS
Chain of GDP-bound NRAS wild-type protein (P01111 whole entry): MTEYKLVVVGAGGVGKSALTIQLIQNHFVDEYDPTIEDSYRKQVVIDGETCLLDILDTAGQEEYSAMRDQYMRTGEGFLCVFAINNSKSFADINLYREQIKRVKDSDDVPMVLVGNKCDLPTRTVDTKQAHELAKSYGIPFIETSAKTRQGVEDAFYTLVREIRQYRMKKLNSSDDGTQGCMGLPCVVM
Outline: as §1

Compound | HRAS /KRAS [1] | pKd [2] | pIC50 [3] | NRAS /KRAS [4]
CCO[C@@H]1C[C@H]2C(=O)NC3(CCC3)C(=O)N(C)[C@@H](C3CCCC3)C(=O)N(C)[C@H](C(=O)N3CCC3)CC(=O)N(C)[C@@H](CC)C(=O)N[C@@H]([C@@H](C)CC)C(=O)N(C)CC(=O)N(C)[C@H]3C/C=C\CCN(C3=O)[C@@H](CC3CCC(F)(F)CC3)C(=O)N(C)CC(=O)N[C@@H](CCc3cc(F)c(C(F)(F)F)c(F)c3)C(=O)N2C1 [PP1444] | A (a compound having 10 or more and less than 20 is denoted as A) | 9.72 | 6.99 | A (a compound having 10 or more and less than 20 is denoted as A)
CCO[C@@H]1C[C@H]2C(=O)NC3(CCC3)C(=O)N(C)[C@@H](C3CCCC3)C(=O)N(C)[C@H](C(=O)N3CCC3)CC(=O)N(C)[C@@H](CC)C(=O)N[C@@H]([C@@H](C)CC)C(=O)N(C)CC(=O)N(C)[C@H]3C/C=C\CCN(C3=O)[C@@H](CC3CCCCC3)C(=O)N(C)CC(=O)N[C@@H](CCc3cc(F)c(C(F)(F)F)c(F)c3)C(=O)N2C1 [PP1445] | A (a compound having 10 or more and less than 20 is denoted as A) | 9.57 | 7.03 | A (a compound having 10 or more and less than 20 is denoted as A)
CCO[C@@H]1C[C@H]2C(=O)NC3(CCC3)C(=O)N(C)[C@@H](C3CCCC3)C(=O)N(C)[C@H](C(=O)N(C)C)CC(=O)N(C)[C@@H](CC3CC3)C(=O)N[C@@H]([C@@H](C)CC)C(=O)N(C)CC(=O)N(C)[C@H]3C/C=C\CCN(C3=O)[C@@H](CC3CCCCC3)C(=O)N(C)CC(=O)N[C@@H](CCc3cc(F)c(C(F)(F)F)c(F)c3)C(=O)N2C1 [PP1446] | A (a compound having 10 or more and less than 20 is denoted as A) | 9.70 | 7.49 | A (a compound having 10 or more and less than 20 is denoted as A)
CCO[C@@H]1C[C@H]2C(=O)NC3(CCC3)C(=O)N(C)[C@@H](C3CCCC3)C(=O)N(C)[C@H](C(=O)N(C)C)CC(=O)N(C)[C@@H](CC3CC3)C(=O)N[C@@H]([C@@H](C)CC)C(=O)N(C)CC(=O)N(C)[C@H]3C/C=C\CCN(C3=O)[C@@H](CC3CCC(F)(F)CC3)C(=O)N(C)CC(=O)N[C@@H](CCc3cc(F)c(C(F)(F)F)c(F)c3)C(=O)N2C1 [PP1447] | A (a compound having 10 or more and less than 20 is denoted as A) | 9.92 | 7.54 | A (a compound having 10 or more and less than 20 is denoted as A)
C=CC[C@H]1C(=O)N[C@@H]([C@@H](C)CC)C(=O)N(C)CC(=O)N(C)[C@H]2C/C=C\CCN(C2=O)[C@@H](CC2CCC(F)(F)CC2)C(=O)N(C)CC(=O)N[C@@H](CCc2cc(F)c(C(F)(F)F)c(F)c2)C(=O)N2C[C@H](OCC)C[C@H]2C(=O)NC2(CCC2)C(=O)N(C)[C@@H](C2CCCC2)C(=O)N(C)[C@H](C(=O)N(C)C)CC(=O)N1C [PP1454] | A (a compound having 10 or more and less than 20 is denoted as A) | 10.02 | 7.82 | A (a compound having 10 or more and less than 20 is denoted as A)
CCO[C@@H]1C[C@H]2C(=O)NC3(CCCC3)C(=O)N(C)[C@@H](C3CCCC3)C(=O)N(C)[C@H](C(=O)N(C)C)CC(=O)N(C)[C@@H](C)C(=O)N[C@@H]([C@@H](C)CC)C(=O)N(C)CC(=O)N(C)[C@H]3C/C=C\CCN(C3=O)[C@@H](CC3CCC(F)(F)CC3)C(=O)N(C)CC(=O)N[C@@H](CCc3cc(F)c(C(F)(F)F)c(F)c3)C(=O)N2C1 [PP1456] | A (a compound having 10 or more and less than 20 is denoted as A) | 9.92 | 7.05 | A (a compound having 10 or more and less than 20 is denoted as A)
